Test results reported in US12428415B2, “Matriptase 2 inhibitors and uses thereof” (Disc Medicine, Inc., priority 2018, dated 2025).
Read-outs that look alike come from different tables or passages of the source.

Target: T1, Human Recombinant Matriptase 2 (Homo sapiens, UniProt Q8IU80)
T1 construct: purchased Enzo Life Sciences (an in-house preparation was also used) ALX-201-752-1
T1 sequence (Q8IU80 1-811): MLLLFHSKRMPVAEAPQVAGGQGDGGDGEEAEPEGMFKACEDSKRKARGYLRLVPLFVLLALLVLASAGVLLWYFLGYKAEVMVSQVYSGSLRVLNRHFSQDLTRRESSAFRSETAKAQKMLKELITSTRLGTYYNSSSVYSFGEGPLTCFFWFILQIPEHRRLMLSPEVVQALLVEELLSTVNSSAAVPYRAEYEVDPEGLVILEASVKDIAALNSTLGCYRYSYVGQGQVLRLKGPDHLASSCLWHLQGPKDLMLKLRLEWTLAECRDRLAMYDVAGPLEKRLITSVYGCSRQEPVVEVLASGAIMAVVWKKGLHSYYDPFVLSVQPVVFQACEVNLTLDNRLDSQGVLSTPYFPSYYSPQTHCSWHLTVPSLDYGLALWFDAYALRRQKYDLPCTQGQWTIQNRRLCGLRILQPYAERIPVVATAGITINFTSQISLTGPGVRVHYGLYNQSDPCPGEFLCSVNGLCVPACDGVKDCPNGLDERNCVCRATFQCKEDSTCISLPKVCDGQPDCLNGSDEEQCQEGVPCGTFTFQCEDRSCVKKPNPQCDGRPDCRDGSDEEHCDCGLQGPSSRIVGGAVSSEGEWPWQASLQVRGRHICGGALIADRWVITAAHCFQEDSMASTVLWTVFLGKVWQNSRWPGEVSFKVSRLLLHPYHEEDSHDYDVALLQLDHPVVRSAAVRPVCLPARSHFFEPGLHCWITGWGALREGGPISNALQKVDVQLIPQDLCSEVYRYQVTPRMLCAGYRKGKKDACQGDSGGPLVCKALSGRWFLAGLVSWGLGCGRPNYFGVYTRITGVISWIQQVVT
Experiment: Matriptase 2 fluorescence based inhibition assay, Method B (50 mM TRIS pH 7.5, 150 mM NaCl, 0.01% gelatin)
Assay type: biochemical
Conditions: for inhibition at 1 µM: read-out: Mar-2 % inhibition at 1 uM
Method: Test compounds were evaluated for their potential to inhibit Human Recombinant Matriptase 2 (in-house and commercial protein from Enzo Life Sciences—cat log -ALX-201-752-1) using fluorescence based assay. The concentration of Recombinant Matriptase 2 and the substrate used in the assay was: 7 nM (commercial) and 15 nM (Inhouse Matriptase 2) and 100 μM (Boc-Gln-Ala-Arg-7-amido-4-methyl coumarin hydrobromide—Cat log: B4153-Sigma and I-1550 from Bachem) respectively. The assay buffer used was 50 mM TRIS pH 7.5, 150 mM NaCl, 0.01% gelatin (G1393 Sigma). The assay was performed using 384 well black flat bottom plate from grenier (Cat log: 781076) at 25° C. The enzyme and compound preincubated for 30 mins, plate was read 60 mins after substrate addition at wavelength Ex: 360/Em:480 nm. The final assay volume of was 20 μl. Stock solution of compounds were initially prepared in DMSO and appropriate dilutions were made for screening and IC50 determination (final DMSO conc in the assay was 1%). All the measurements were carried out using the Spectramax M5, Molecular devices. The compounds were screened at 1 and 10 μM concentration and IC50 was determined for the interested compounds.
To determine IC50 values, dose response curves were generated by plotting percentage inhibition as a function of inhibitor concentration and the data was fitted to sigmoidal non-linear regression equation (variable slope) using Graph Pad prism software V7.

[1] = 1 uM compound, Assay Used = B (Method B)
[2] = compound at 1 uM, Assay Used: B

Compound | inhibition at 1 µM [1] | inhibition at 1 µM (1 uM compound, Assay Used = B) | also measured
CCOC(=O)NC(=N)c1ccc2cc(C(=O)O)n(Cc3cccc4ccccc34)c2c1 [Compound I-712] | 0 to 25% | – | –
N=C(N)c1ccc2cc(C(=O)Nc3cccc(-c4ncc[nH]4)c3)n(Cc3cccc4ccccc34)c2c1 [Compound I-448] | – | 25 to 50% | –
N=C(N)c1ccc2cc(C(=O)N[C@H]3CC[C@H](N)CC3)n(Cc3ccc(C(=O)O)c4ccccc34)c2c1 [Compound I-673] | – | – | Mar-2 % inhibition at 1 uM [1]: B (B represents 25%≤I≤50%)
N=C(N)c1ccc2cc(-c3nnnn3CCO)n(Cc3cccc4ccccc34)c2c1 [Compound I-710] | 75 to 100% | – | –
CNC(=O)c1cc2ccc(C(=N)N)cc2n1Cc1cc(Oc2ncccn2)cc2ccccc12 [Compound I-578] | – | 75 to 100% | –
C[C@@H](c1cccc2ccccc12)n1c(C(=O)N[C@H]2CC[C@H](N)CC2)cc2ccc(/C(N)=N/O)cc21 [Compound I-802] | – | – | inhibition at 1 µM [2]: 0 to 25%
CCn1c(C(=O)N[C@H]2CC[C@H](N)CC2)c(Cc2cccc3ccccc23)c2cc(C(=N)NN)ccc21 [Compound I-664] | 0 to 25% | – | –
N=C(N)c1ccc2cc(C(=O)Nc3ncccn3)n(Cc3cccc4ccccc34)c2c1 [Compound I-573, 6-carbamimidoyl-1-(naphthalen-1-ylmethyl)-N-(pyrimidin-2-yl)-1H-indole-2-carboxamide] | – | 50 to 75% | –
COC(=O)[C@H]1CC[C@H](NC(=O)c2cc3ccc(C(=N)N)cc3n2Cc2cccc3ccccc23)CC1 [Compound I-471] | – | 25 to 50% | –
CO/N=C(\N)c1ccc2cc(C(=O)OC)n(Cc3cccc4ccccc34)c2c1 [Compound I-718, methyl (E)-6-(N′-methoxycarbamimidoyl)-1-(naphthalen-1-ylmethyl)-1H-indole-2-carboxylate] | 0 to 25% | – | –
N=C(N)c1ccc2cc(C(=O)O)n(Cc3cc(S(N)(=O)=O)cc4ccccc34)c2c1 [Compound I-548] | – | 25 to 50% | –
CC(C)COC(=O)c1cc(Cn2c(C(=O)N[C@H]3CC[C@H](N)CC3)cc3ccc(C(=N)N)cc32)c2ccccc2c1 [Compound I-780] | 75 to 100% | – | –
CC(C)(C)OC(=O)N[C@H]1CC[C@H](NC(=O)c2cc3ccc(C(=N)N)cc3n2CCc2ccc3ccccc3c2)CC1 [Compound I-405] | – | 25 to 50% | –
N=C(N)c1ccc2cc(C(=O)N[C@H]3CC[C@H](N)CC3)n(Cc3cccc4c(Br)cccc34)c2c1 [Compound I-792] | 75 to 100% | – | –
N=C(N)c1ccc2cc(C(=O)N[C@H]3CC[C@H](N)CC3)n(Cc3cccc4cnccc34)c2c1 [Compound I-504] | – | 50 to 75% | –
CN(C)C(=O)c1ccc(Cn2c(C(=O)N[C@H]3CC[C@H](N)CC3)cc3ccc(C(=N)N)cc32)c2ccccc12 [Compound I-798] | – | – | inhibition at 1 µM [2]: 50 to 75%
N=C(N)c1ccc2cc(C(=O)N[C@H]3CC[C@H](N)CC3)n(Cc3cccc4sc(C(=O)O)cc34)c2c1 [Compound I-815, 4-((2-(((1r,4r)-4-aminocyclohexyl)carbamoyl)-6-carbamimidoyl-1H-indol-1-yl)methyl) benzo[b]thiophene-2-carboxylic Acid] | – | – | inhibition at 1 µM [2]: 50 to 75%
N=C(N)c1ccc2cc(C(=O)O)n(Cc3cc(S(=O)(=O)Nc4ccccc4)cc4ccccc34)c2c1 [Compound I-585] | – | 50 to 75% | –
CC1(O)CCC(NC(=O)c2cc3ccc(C(=N)N)cc3n2Cc2cccc3ccccc23)CC1 (centres unmarked) [Compound I-436] | – | 50 to 75% | –
N=C(N)c1ccc2cc(C(=O)N[C@H]3CC[C@@H](N)CC3)n(Cc3csc4ccccc34)c2n1 [Compound I-722] | 75 to 100% | – | –
N=C(N)c1ccc2cc(CC(=O)O)n(Cc3cccc4ccccc34)c2c1 [Compound I-716, 2-(6-carbamimidoyl-1-(naphthalen-1-ylmethyl)-1H-indol-2-yl)acetic Acid] | 75 to 100% | – | –
N=C(N)c1ccc2cc(C(=O)N[C@H]3CC[C@H](N)CC3)n(Cc3ccccc3-c3ccccc3)c2c1 [Compound I-646] | – | – | Mar-2 % inhibition at 1 uM [1]: A (A represents 0%≤I≤25%)

Compound | inhibition at 1 µM [1] | inhibition at 1 µM (1 uM compound, Assay Used = B) | also measured
N=C(N)c1ccc2cc(C(=O)N[C@H]3CC[C@H](N)CC3)n(Cc3cc(Br)cc4ccccc34)c2c1 [Compound I-819] | – | – | inhibition at 1 µM [2]: 75 to 100%
N=C(N)c1ccc2cc(C(=O)N3CC4CC3CN4)n(Cc3cccc4ccccc34)c2c1 (centres unmarked) [Compound I-454] | – | 75 to 100% | –
N=C(N)c1ccc2cc(C(=O)O)n(Cc3cc(N4CCOCC4=O)cc4ccccc34)c2c1 [Compound I-692] | 0 to 25% | – | –
N=C(N)c1ccc2cc(C(=O)O)n(Cc3cc(O)cc4ccccc34)c2c1 [Compound I-695, 6-carbamimidoyl-1-((3-hydroxynaphthalen-1-yl)methyl)-1H-indole-2-carboxylic Acid] | 75 to 100% | – | –
N=C(N)c1ccc2cc(C(=O)NCCN3CCCCC3)n(Cc3cccc4ccccc34)c2c1 [Compound I-481] | – | 75 to 100% | –
N=C(N)c1ccc2cc(C(=O)N[C@H]3CC[C@H](N)CC3)n(Cc3cc(CO)cc4ccccc34)c2c1 [Compound I-800, N-((1r,4r)-4-aminocyclohexyl)-6-carbamimidoyl-1-((3-(hydroxymethyl)naphthalen-1-yl)methyl)-1H-indole-2-carboxamide] | – | – | inhibition at 1 µM [2]: 25 to 50%
N=C(N)c1ccc2c(C(=O)N[C@H]3CC[C@H](N)CC3)cn(Cc3ccc4ccccc4c3)c2c1 [Compound I-520] | – | 0 to 25% | –
N=C(N)c1ccc2cc(C(=O)NCCCN)n(Cc3cccc4ccccc34)c2c1 [Compound I-466] | – | 75 to 100% | –
CCOC(=O)N1CCC(NC(=O)c2cc3ccc(C(=N)N)cc3n2Cc2cccc3ccccc23)CC1 [Compound I-434] | – | 75 to 100% | –
NC(=NO)c1ccc2cc(C(=O)O)n(Cc3cc(S(=O)(=O)c4ccccc4)cc4ccccc34)c2c1 [Compound I-659] | 0 to 25% | – | –
N#Cc1ccc(Cn2c(C(=O)N[C@H]3CC[C@H](N)CC3)cc3ccc(C(=N)N)cc32)c2ccccc12 [Compound I-691] | 75 to 100% | – | –
N=C(N)c1ccc2cc(C(=O)O)n(Cc3cc(Oc4ncccn4)cc4ccccc34)c2n1 [Compound I-544] | – | 25 to 50% | –
N=C(N)c1ccc2cc(C(=O)O)n(Cc3cc(Oc4nccs4)cc4ccccc34)c2c1 [Compound I-589] | – | 75 to 100% | –
N#Cc1c(C(=O)N[C@H]2CC[C@H](N)CC2)n(Cc2cccc3ccccc23)c2cc(C(=N)N)ccc12 [Compound I-514, N-((1r,4r)-4-aminocyclohexyl)-6-carbamimidoyl-3-cyano-1-(naphthalen-1-ylmethyl)-1H-indole-2-carboxamide] | – | 0 to 25% | –
N=C(N)c1ccc2cc(C(=O)N[C@H]3CC[C@H](C(=O)O)CC3)n(Cc3cccc4ccccc34)c2c1 [Compound I-473] | – | 25 to 50% | –
N=C(N)c1ccc2cc(C(=O)N[C@H]3CC[C@H](N)CC3)n(Cc3c(Cl)cccc3Cl)c2c1 [Compound I-503] | – | 0 to 25% | –
COc1ccc(Oc2cc(Cn3c(C(=O)O)cc4ccc(C(=N)N)cc43)c3ccccc3c2)cc1 [Compound I-688] | 50 to 75% | – | –
N=C(N)c1ccc2cc(C(=O)NCC3(CN)CCCCC3)n(Cc3cccc4ccccc34)c2c1 [Compound I-604] | 75 to 100% | – | –
CC(C)(C)OC(=O)Nc1cc2ccc(C(=N)N)cc2n1Cc1cc(S(=O)(=O)c2ccccc2)cc2ccccc12 [Compound I-603, tert-butyl (6-carbamimidoyl-1-((3-(phenylsulfonyl)naphthalen-1-yl)methyl)-1H-indol-2-yl)carbamate] | 25 to 50% | – | –
CCOC(=O)c1cc2ccc(C(=N)NC(=O)OCC(C)C)cc2n1Cc1cc(Oc2ncccn2)cc2ccccc12 [Compound I-607] | 0 to 25% | – | –
CN[C@H]1CC[C@H](NC(=O)c2cc3ccc(C(=N)N)cc3n2Cc2cccc3ccccc23)CC1 [Compound I-472] | – | 75 to 100% | –
Cc1ccc(S(=O)(=O)Oc2cc(Cn3c(C(=O)N[C@H]4CC[C@H](N)CC4)cc4ccc(C(=N)N)cc43)c3ccccc3c2)cc1 [Compound I-614] | 75 to 100% | – | –
